Data as given in patent publication US20040044226A1, “Estrogen receptor modulators” (priority 2003, published 2004).

System: MCF-7 cells
Assay: MCF-7 Estrogen Dependent Proliferation Assay
Assay type: cell-based
Conditions: Homo sapiens, MCF7, estradiol added to Estrogen Depleted Media (EDM), read-out: EC50 of stimulation of growth of MCF-7 cells
Description: MCF-7 Estrogen Dependent Proliferation Assay MCF-7 cells (ATCC #HTUB-22) are human mammary gland adenocarcinoma cells that require estrogen for growth. The growth media (GM) for the MCF-7 cells is Minimum Essential Media (without phenol red) supplemented with fetal bovine serum(FBS) to 10%. The FBS serves as the sole source of estrogen and this GM supports the full growth of the cells and is used for the routine growth of the cell cultures. When MCF-7 cells are placed in a media in which 10% Charcoal-Dextran treated fetal bovine serum (CD-FBS) is substituted for FBS, the cells will cease to divide but will remain viable. […] The addition of estradiol to EDM stimulates the growth of the MCF-7 cells in a dose dependent manner with an EC50 of […]. Growing MCF-7 cells are washed several times with EDM and the cultures then maintained in EDM for a minimum of 6 days in order to deplete the cells of endogenous estrogen. On day 0 (at the start of the assay), these estrogen depleted cells are plated into 96-well cell culture plates at a density of 1000 cells/well in EDM in a volume of 180 ul/well. […] At this point, the culture supernatants are aspirated, the cells washed 2× with PBS, the wash solution aspirated and the protein content of each well determined. Each drug dilution is evaluated on a minimum of 5 wells and the range of dilution of the test compounds in the assay is 0.001 nM to 1000 nM. […]

EC50: 2 pM
SMILES: C[C@]12CC[C@@H]3c4ccc(O)cc4CC[C@H]3[C@@H]1CC[C@@H]2O [estradiol]
